According to patent US9353048B2, “Compound as KCNQ potassium channel agonist, preparation method therefor and use thereof” (SHANGHAI INSTITUTE OF MATERIA MEDICA, CHINESE ACADEMY OF …, priority 2011, dated 2016):
“And” between values parts separate entries of the source, which are not always exact repeats. Equal entries are not always repeated. “Also recorded” adds a separate entry of the source. Structures can show the parent of a compound that is named as a salt. Marks after values point to notes of the source that are not given here.

Tests used:
KCNQ channels = test: Whole-cell voltage-clamp electrophysiological recording in CHO cells transfected with KCNQ channels; assay type: cell-based; details: for I/I0: activation multiple, maximum induced current at −10 mV testing voltage after administration (10 μM) vs before, >1 activating, <1 inhibiting; for ΔV1/2: shift of V1/2 of current activation curve, negative sign = left-ward shift, CHO cells
Protocol: The formulation of culture fluid for Chinese hamster […] (CHO) (Culture Collection of Chinese Academy of Sciences): 50/50 DMEM/F-12 (Cellgro, Mamassas, Va.), 10% fetal bovine serum (FBS) (Gibco, Australia) and 2 mM […] (Invitrogen). […] Lipofectamine2000™ agent (Invitrogen) was used for Transfection according to the protocol thereof. […] After cotransfection with GFP (green fluorescent protein), transfected cells could be determined under a fluorescence microscopy.
Whole-cell voltage-clamp recording was performed by using Axopatch-200B amplifier (Molecular Devices, Sunnyvale, Calif.) at room temperature. Borosilicate glass capillary tubes (World Precision Instruments, Sarasota, Fla.) were drawn into electrodes. The electric resistance of the electrodes filled with an intracellular fluid is 3 to 5 MΩ. […] During the recording, an extracellular fluid was continuously perfused by using a BPS perfusion system (ALA Scientific Instruments, Westburg, N.Y.). The formulation of the extracellular fluid was as follows: 140 mM NaCl, 5 mM KCl, 2 mM CaCl2, 1.5 mM MgCl2, 10 mM HEPES and 10 mM glucose (the pH value of the extracellular fluid was adjusted to 7.4 with NaOH). […] Resistors were connected in series to compensate 60 to 80% of signal loss. At present, multivoltage scheme was generally adopted, wherein the clamp voltage was set at −100 mV. Current was induced in cells by a series of 2000 ms stimulating voltage (from −90 mV up to +50 mV, with interval of 10 mV).
In the following table, V1/2 is the voltage at which 50% of cells were activated, ΔV1/2 is amount of a left-ward shift of V1/2, negative sign (−) represents a left-ward shift of the current activation curve and positive sign (+) represents a right-ward shift of the curve. I/I0 is the activation multiple, wherein, I0 is the maximum induced current produced under stimulation of −10 mV testing voltage, I is the maximum induced current produced under stimulation of −10 mV testing voltage after administration (10 μM), I/I0>1 represents activating activity, and I/I0<1 represents inhibiting activity. N is the number of tested cells. NT represents non-tested.

[1] = Solubility in water (treatment of samples)
[2] = system: Convulsion Induced by Pentylenetetrazole (PTZ); test: Convulsion induced by pentylenetetrazole (PTZ), compounds by gastric lavage, C57BL/6J mice; assay type: in vivo; details: 30 mg/kg gastric lavage; for Latency period of clonus / Latency period of whole-body tonic seizures / Mortality rate / Incidence rate of convulsion: PTZ 80 mg/kg s.c. 1 h later; for Incidence rate of convulsion: observed 60 min; for anti-convulsive effect (in words): PTZ-induced convulsion
Protocol: The compounds to be tested were administrated to animals by gastric lavage (30 mg/kg); one hour later, pentylenetetrazole was administrated by subcutaneous injection (PTZ 80 mg/kg); and response of animals were observed within a period of 60 min.

in vivo = details: mouse, 20 mg/kg
Protocol: Two hours after administration, animal were fed uniformly. Specific arrangement was as following table.
After administration by gastric lavage or intravenous injection, mice were sacrificed by cutting abdominal aorta at time points set as the above with 3 mice for each time point. 0.5 mL of whole blood was collected for each animal, placed into a heparinized test tube and subjected to centrifugation at 3000 rpm to separate plasma, which was then cryopreserved in a −20° C. refrigerator. After the animals were sacrificed, their whole brain was collected, washed with ice-cooled physiological saline to remove residual blood. Then the residual liquid was absorbed to dryness. The treated brain was labeled and cryopreserved in a −20° C. refrigerator.

[3] = system: Animal Models Induced by MES (Maximum Electroshock); test: MES test, compounds by intraperitoneal injection, KM mice; assay type: in vivo; details: 10 mg/kg i.p.; for Mortality rate / Incidence of convulsion: MES 30 min later; for Incidence of convulsion: tonic hind limb extension
Excerpt: (§1) One time of electrical stimulation was applied to animals through ear clip electrodes, and a convulsion characterized by a tonic hind limb extension was observed. One day before the test, animals were screened in the above procedure to record the values of MES.

[4] = system: Animal Models Induced by PTZ (Pentylenetetrazole); test: PTZ test, compounds by intraperitoneal injection, KM mice; assay type: in vivo; details: for Incidence rate of convulsion: PTZ 100 mg/kg s.c. 30 min later, observation 1 h
Protocol: Compounds to be tested were administrated by intraperitoneal injection (10 mg/kg, 5 mg/kg, 2.5 mg/kg, 0.1 ml/10 g).

[5] = system: Animal Models Induced by PTZ; test: PTZ test, compounds orally administrated (gastric lavage), KM mice; details: for Incidence of tonic fore limb extension / Incidence of tonic hind limb extension / Latency period of clonus / Latency period of fore limb extension / Mortality rate / Incidence rate of clonus: 30 mg/kg gastric lavage; for Incidence rate of clonus: PTZ 100 mg/kg s.c. 1 h later, observation 1 h; for effect in PTZ test (in words): gastric lavage
Protocol: Response of animals were observed immediately and recorded within a period of 1 h.

[6] = system: Animal Models Induced by MES; test: MES test, compounds orally administrated (gastric lavage), KM mice; assay type: in vivo; details: for Incidence rate of convulsion / Protection rate of compounds: 30 mg/kg gastric lavage, MES 1 hour later; for effect in MES test (in words): gastric lavage
Protocol: as §1
1 hour later, MES was applied according to parameters set the last day, and response of animals were observed and recorded immediately.

Compound	I/I0 (KCNQ channels)	ΔV1/2 (KCNQ channels)	solubility in water (in words) [1]	Latency period of clonus [2]	Latency period of whole-body tonic seizures [2]	Mortality rate [2]	Incidence rate of convulsion [2]	anti-convulsive effect (in words) [2]	Mortality rate [3]	Incidence of convulsion [3]	Incidence of tonic fore limb extension ([4]; 2.5 mg/kg i.p.)	Incidence of tonic hind limb extension ([4]; 2.5 mg/kg i.p.)	Latency period of clonus ([4]; 2.5 mg/kg i.p.)	Mortality rate ([4]; 2.5 mg/kg i.p.)	Incidence rate of convulsion ([4]; 2.5 mg/kg i.p.)	Incidence of tonic fore limb extension ([4]; 5 mg/kg i.p.)	Incidence of tonic hind limb extension ([4]; 5 mg/kg i.p.)	Latency period of clonus ([4]; 5 mg/kg i.p.)	Mortality rate ([4]; 5 mg/kg i.p.)	Incidence rate of convulsion ([4]; 5 mg/kg i.p.)	also measured
COC(=O)Nc1ccc(NCc2ccc(F)cc2)cc1 [Compound K1]	2.84 ± 0.08	−8.1 ± 3.1 mV	can not be easily dissolved in water	250 ± 114 s	1785 ± 408 s	3/10	4/10														
C#CCN(Cc1ccc(F)cc1)c1ccc(NC(=O)OC)cc1 [Compound K9, methyl 4-(N-parafluorobenzyl-N-propargyl-imino)-aniline formate]	3.27 ± 0.10	−24.21 ± 2.4 mV	can not be easily dissolved in water	351 ± 84.3 s	1382 ± 339 s	4/10	4/10	comparable anti-convulsive effect													Kp (in vivo; male, KM): 1.9; bioavailability (in vivo; male, KM): 26%; AUC(0-t) (in vivo; male, KM, iv): 7180 ng·h/mL; Kp (in vivo; male, KM, iv): 1.5; clearance (in vivo; male, KM, iv): 46.3 mL/min/kg; AUC(0-t) (in vivo; male, KM, po): 1860 ng·h/mL; Cmax (in vivo; male, KM, po): 2200 ng/mL and 4420 ng/g; half-life (in vivo; male, KM, po): ~72 min; area under the concentration-time curve (AUC0-t) in brain tissue (in vivo): 3565 ng·h/g; area under the concentration-time curve (AUC0-t) of brain tissue (in vivo; iv): 10694 ng·h/g
C#CCN(Cc1ccc(F)cc1)c1ccc(NC(=O)OCC)c(N)c1 [Compound K21, ethyl 2-amino-4-(N-parafluorobenzyl-N-propargyl-imino)-aniline formate]	1.53 ± 0.15	−47.9 ± 3.5 mV	can not be easily dissolved in water						0	2/10***	2/10	0/10***	184 ± 42 s	1/10**	9/10	3/10	0/10***	238 ± 54 s	1/10**	10/10	grand mal seizure in MES test (in words) [3]: completely avoided the grand mal seizure; Incidence of tonic hind limb extension ([4]; 10 mg/kg i.p.): 0/12***; Mortality rate ([4]; 10 mg/kg i.p.): 0/12***; Incidence rate of convulsion ([4]; 10 mg/kg i.p.): 12/12; sedative effect ([4]; intraperitoneal injection): some sedative effect; anti-convulsive effect compared with retigabine (in words) ([4]; intraperitoneal injection, same dosage, PTZ and MES tests): slightly stronger than that of retigabine; Incidence of tonic fore limb extension [5]: 5/12; Incidence of tonic hind limb extension [5]: 0/12**; Latency period of clonus [5]: 148 ± 37 s; Latency period of fore limb extension [5]: 1561 ± 690 s; Mortality rate [5]: 3/12; Incidence rate of clonus [5]: 12/12; effect in PTZ test (in words) [5]: significantly inhibit tonic seizures; Incidence rate of convulsion [6]: 2/13***; Protection rate of compounds [6]: 84.6%***; effect in MES test (in words) [6]: significantly inhibiting the incidence of the grand mal seizure
CCOC(=O)Nc1ccc(NCc2ccc(F)cc2)cc1N [Retigabine, retigabine, reference compound]			can be easily dissolved in water	No typical	1472 ± 961 s	4/10	5/10	comparable anti-convulsive effect	0	4/11**	5/10	1/10**	179 ± 60 s	7/10	10/10	4/10	2/10*	184 ± 40 s	5/10	10/10	Latency period of tonic hind limb ([4]; 2.5 mg/kg i.p.): 827 s; Latency period of tonic hind limb ([4]; 5 mg/kg i.p.): 883 ± 151 s; Incidence of tonic hind limb extension ([4]; 10 mg/kg i.p.): 4/12*; Latency period of clonus ([4]; 10 mg/kg i.p.): 239 ± 113 s; Latency period of tonic hind limb ([4]; 10 mg/kg i.p.): 1100 ± 319 s; Mortality rate ([4]; 10 mg/kg i.p.): 2/12**; Incidence rate of convulsion ([4]; 10 mg/kg i.p.): 10/10; sedative effect ([4]; intraperitoneal injection): some sedative effect; Incidence of tonic fore limb extension [5]: 3/12**; Incidence of tonic hind limb extension [5]: 0/12**; Latency period of clonus [5]: 177 ± 70 s; Latency period of fore limb extension [5]: 1063 ± 284 s; Mortality rate [5]: 0/12**; Incidence rate of clonus [5]: 12/12; effect in PTZ test (in words) [5]: obviously reduce the incidence rate of convulsion and mortality rate; also recorded: significantly reduce the incidence rate of convulsion and mortality rate; Incidence rate of convulsion [6]: 5/13***; Protection rate of compounds [6]: 61.5%***; effect in MES test (in words) [6]: significantly inhibiting the incidence of the grand mal seizure; also recorded: comparable effect; behaviour of animals after administration ([2]; returned to normal after 20 min): quite and less active
